Source: PubChem BioAssay AID328 (DTP/NCI, 2004)
“And” between values parts separate entries of the source, which are not always exact repeats. Identical values can stand only once. Toxic doses and inconclusive results are not listed.

Test system: BDF1 mice, P388 leukemia ip, median survival T/C
Test: NCI In Vivo Anticancer Drug Screen. Data for tumor model P388 Leukemia (intraperitoneal) in B6D2F1 (BDF1) mice
Details: endpoint: median survival time, higher = longer survival
How it was run: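 Steps: implant the tumour, treat one group with compound and another with vehicle, record survival, then divide treated by control.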

[1] = dose: 50.0 mg/kg/injection, schedule: Q01DX009 (ip), vehicle: Klucel (hydroxypropylcellulose) (HPC)
[2] = dose: 100.0 mg/kg/injection, schedule: Q01DX009 (ip), vehicle: Klucel (hydroxypropylcellulose) (HPC)
[3] = dose: 50.0 mg/kg/injection, schedule: Q01DX009 (ip), vehicle: saline with Tween-80
[4] = dose: 100.0 mg/kg/injection, schedule: Q01DX009 (ip), vehicle: saline with Tween-80
[5] = dose: 200.0 mg/kg/injection, schedule: Q01DX009 (ip), vehicle: saline with Tween-80
[6] = dose: 25.0 mg/kg/injection, schedule: Q01DX009 (ip), vehicle: saline
[7] = dose: 50.0 mg/kg/injection, schedule: Q01DX009 (ip), vehicle: saline
[8] = dose: 100.0 mg/kg/injection, schedule: Q01DX009 (ip), vehicle: saline
[9] = dose: 200.0 mg/kg/injection, schedule: Q01DX009 (ip), vehicle: saline
[10] = dose: 25.0 mg/kg/injection, schedule: Q01DX009 (ip), vehicle: saline with Tween-80

COc1cccc2c1C(=O)c1c(O)c3c(c(O)c1C2=O)C[C@@](O)(/C(C)=N/NC(=O)c1cccc([N+](=O)[O-])c1)C[C@@H]3OC1CC(N)C(O)C(C)O1 (stereo not given in full)
T/C (dose: 0.25 mg/kg/injection, schedule: Q01DX009 (ip), vehicle: water): 152 % of control | T/C (dose: 0.5 mg/kg/injection, schedule: Q01DX009 (ip), vehicle: water): 163 % of control | T/C (dose: 1.0 mg/kg/injection, schedule: Q01DX009 (ip), vehicle: water): 166 % of control and 191 % of control | T/C (dose: 2.0 mg/kg/injection, schedule: Q01DX009 (ip), vehicle: water): 156 % of control and 214 % of control | T/C (dose: 4.0 mg/kg/injection, schedule: Q01DX009 (ip), vehicle: water): 244 % of control and 184 % of control | T/C (dose: 8.0 mg/kg/injection, schedule: Q01DX009 (ip), vehicle: water): 169 % of control

Cc1ccc(C(=O)[O][Hg][CH2]C2COC([CH2][Hg][O]C(=O)c3ccc(C)cc3)CO2)cc1 (stereo not given)
T/C (dose: 2.25 mg/kg/injection, schedule: Q01DX009 (ip), vehicle: saline with Tween-80): 90 % of control | T/C (dose: 6.25 mg/kg/injection, schedule: Q01DX009 (ip), vehicle: saline sonified): 110 % of control | T/C (dose: 6.25 mg/kg/injection, schedule: Q04DX003 (ip), vehicle: saline with Tween-80): 107 % of control | T/C (dose: 12.5 mg/kg/injection, schedule: Q04DX003 (ip), vehicle: saline with Tween-80): 107 % of control | T/C (dose: 25.0 mg/kg/injection, schedule: Q01DX009 (ip), vehicle: Klucel (hydroxypropylcellulose) (HPC)): 109 % of control | T/C (dose: 25.0 mg/kg/injection, schedule: Q01DX009 (ip), vehicle: saline sonified): 150 % of control | T/C (dose: 25.0 mg/kg/injection, schedule: Q04DX003 (ip), vehicle: saline with Tween-80): 103 % of control | T/C [1]: 109 % of control | T/C [2]: 86 % of control | T/C (dose: 225.0 mg/kg/injection, schedule: Q04DX003 (ip), vehicle: Klucel (hydroxypropylcellulose) (HPC)): 109 % of control

Cc1ccc2c(C)c3ccc4ccccc4c3c[n+]2c1
T/C (dose: 20.0 mg/kg/injection, schedule: Q04DX003 (ip), vehicle: saline): 118 % of control | T/C (dose: 40.0 mg/kg/injection, schedule: Q04DX003 (ip), vehicle: saline): 118 % of control

CCCCCCCCCC(=O)NN1CCOCC1
T/C (dose: 100.0 mg/kg/injection, schedule: Q01DX001 (ip), vehicle: saline with Tween-80): 104 % of control | T/C (dose: 200.0 mg/kg/injection, schedule: Q01DX001 (ip), vehicle: saline with Tween-80): 120 % of control | T/C (dose: 400.0 mg/kg/injection, schedule: Q01DX001 (ip), vehicle: saline with Tween-80): 104 % of control

CN(C)CC/C=C1\c2ccccc2Sc2ccc(Cl)cc21
T/C (dose: 3.75 mg/kg/injection, schedule: Q01DX001 (ip), vehicle: Klucel (hydroxypropylcellulose) (HPC)): 112 % of control | T/C (dose: 7.5 mg/kg/injection, schedule: Q01DX001 (ip), vehicle: Klucel (hydroxypropylcellulose) (HPC)): 110 % of control | T/C (dose: 15.0 mg/kg/injection, schedule: Q01DX001 (ip), vehicle: Klucel (hydroxypropylcellulose) (HPC)): 112 % of control | T/C (dose: 30.0 mg/kg/injection, schedule: Q01DX001 (ip), vehicle: Klucel (hydroxypropylcellulose) (HPC)): 103 % of control | T/C (dose: 60.0 mg/kg/injection, schedule: Q01DX001 (ip), vehicle: Klucel (hydroxypropylcellulose) (HPC)): 114 % of control | T/C (dose: 120.0 mg/kg/injection, schedule: Q01DX001 (ip), vehicle: Klucel (hydroxypropylcellulose) (HPC)): 118 % of control

Cc1cc(Cl)ccc1Nc1sc(C(=O)c2cc3cc(Cl)ccc3o2)c(N)c1C#N
T/C [3]: 104 % of control | T/C [4]: 93 % of control | T/C [5]: 89 % of control

CCOC(=O)NC(=O)CC
T/C (dose: 25.0 mg/kg/injection, schedule: Q01DX005 (ip), vehicle: saline): 114 % of control | T/C [6]: 102 % of control | T/C (dose: 50.0 mg/kg/injection, schedule: Q01DX005 (ip), vehicle: saline): 114 % of control | T/C [7]: 102 % of control | T/C (dose: 50.0 mg/kg/injection, schedule: Q04DX003 (ip), vehicle: saline): 103 % of control and 104 % of control | T/C (dose: 100.0 mg/kg/injection, schedule: Q01DX005 (ip), vehicle: saline): 96 % of control | T/C [8]: 115 % of control | T/C (dose: 100.0 mg/kg/injection, schedule: Q04DX003 (ip), vehicle: saline): 96 % of control and 103 % of control and 213 % of control | T/C (dose: 200.0 mg/kg/injection, schedule: Q01DX005 (ip), vehicle: saline): 122 % of control | T/C [9]: 112 % of control | T/C (dose: 200.0 mg/kg/injection, schedule: Q04DX003 (ip), vehicle: saline): 105 % of control and 112 % of control and 114 % of control | T/C (dose: 400.0 mg/kg/injection, schedule: Q01DX009 (ip), vehicle: saline): 106 % of control | T/C (dose: 400.0 mg/kg/injection, schedule: Q04DX003 (ip), vehicle: saline): 99 % of control and 113 % of control | T/C (dose: 600.0 mg/kg/injection, schedule: Q04DX003 (ip), vehicle: saline): 114 % of control

CN(C)c1ccc(-c2cc(C(=O)O)c3cc4ccccc4cc3n2)cc1
T/C (dose: 12.5 mg/kg/injection, schedule: Q01DX009 (ip), vehicle: saline with Tween-80): 97 % of control | T/C [10]: 97 % of control | T/C [3]: 94 % of control and 102 % of control | T/C [4]: 98 % of control and 104 % of control

CCCCCCCCCC(=O)CCCC
T/C (dose: 100.0 mg/kg/injection, schedule: Q04DX003 (ip), vehicle: saline with Tween-80): 100 % of control | T/C (dose: 200.0 mg/kg/injection, schedule: Q04DX003 (ip), vehicle: saline with Tween-80): 91 % of control | T/C (dose: 400.0 mg/kg/injection, schedule: Q04DX003 (ip), vehicle: saline with Tween-80): 108 % of control

CC1OC(Oc2c(-c3cc(O)c(O)c(O)c3)oc3cc(O)cc(O)c3c2=O)C(O)C(O)C1O (stereo not given)
T/C [3]: 119 % of control | T/C [4]: 100 % of control

Nc1ccn(C2OC(CO)C(O)C2O)c(=O)c1 (stereo not given)
T/C [6]: 93 % of control | T/C [7]: 95 % of control | T/C [8]: 112 % of control | T/C [9]: 102 % of control

CN1NCc2cncnc21
T/C [3]: 90 % of control | T/C [4]: 99 % of control | T/C [5]: 99 % of control | T/C (dose: 400.0 mg/kg/injection, schedule: Q01DX009 (ip), vehicle: saline with Tween-80): 90 % of control

N=C(N)SCCCCCCCCCCSC(=N)N
T/C [10]: 97 % of control | T/C [3]: 123 % of control

O=C1C(Cl)=C(Sc2nc3ccccc3s2)C(=O)c2ccccc21
T/C (dose: 50.0 mg/kg/injection, schedule: Q01DX005 (ip), vehicle: saline with Tween-80): 112 % of control

CC1CC[N-]CC1.CC1CC[N-]CC1.CC1CC[N-]CC1.CC1CC[N-]CC1.[Pt+4]
T/C (dose: 0.09 mg/kg/injection, schedule: Q01DX009 (ip), vehicle: saline): 88 % of control | T/C (dose: 0.19 mg/kg/injection, schedule: Q01DX009 (ip), vehicle: saline): 93 % of control | T/C (dose: 0.23 mg/kg/injection, schedule: Q01DX009 (ip), vehicle: saline): 88 % of control | T/C (dose: 0.25 mg/kg/injection, schedule: Q01DX009 (ip), vehicle: saline): 102 % of control | T/C (dose: 0.39 mg/kg/injection, schedule: Q01DX009 (ip), vehicle: saline): 92 % of control | T/C (dose: 0.5 mg/kg/injection, schedule: Q01DX009 (ip), vehicle: saline): 102 % of control | T/C (dose: 0.65 mg/kg/injection, schedule: Q01DX009 (ip), vehicle: saline): 92 % of control | T/C (dose: 0.78 mg/kg/injection, schedule: Q01DX009 (ip), vehicle: saline): 88 % of control and 105 % of control | T/C (dose: 1.0 mg/kg/injection, schedule: Q01DX009 (ip), vehicle: saline): 112 % of control | T/C (dose: 1.56 mg/kg/injection, schedule: Q01DX009 (ip), vehicle: saline): 90 % of control | T/C (dose: 1.56 mg/kg/injection, schedule: Q04DX003 (ip), vehicle: saline): 109 % of control | T/C (dose: 2.0 mg/kg/injection, schedule: Q01DX009 (ip), vehicle: saline): 103 % of control | T/C (dose: 3.12 mg/kg/injection, schedule: Q04DX003 (ip), vehicle: saline): 95 % of control

NCC(O)CSc1ccc(Cl)c(Cl)c1 (stereo not given)
T/C (dose: 50.0 mg/kg/injection, schedule: Q04DX002 (ip), vehicle: saline with Tween-80): 98 % of control | T/C (dose: 100.0 mg/kg/injection, schedule: Q04DX002 (ip), vehicle: saline with Tween-80): 106 % of control

CN1CCC/C(=C(/N)c2ccccc2)S1(=O)=O
T/C [3]: 104 % of control | T/C [4]: 100 % of control | T/C [5]: 104 % of control

Cc1ccc(NC(=O)CO)cc1
T/C [1]: 102 % of control | T/C [2]: 97 % of control | T/C (dose: 200.0 mg/kg/injection, schedule: Q01DX009 (ip), vehicle: Klucel (hydroxypropylcellulose) (HPC)): 104 % of control
